In brackets after ≈: the same amount, converted by molar mass.
What was measured:
[1] = molecular target: T1, Prostaglandin E2 receptor EP1 subtype (Homo sapiens, UniProt P34995); test: Displacement of [H3PGE2 from human EP1 receptor expressed in CHOK1 cells; type: cell-based, CHO-K1
T1 sequence (P34995 whole entry): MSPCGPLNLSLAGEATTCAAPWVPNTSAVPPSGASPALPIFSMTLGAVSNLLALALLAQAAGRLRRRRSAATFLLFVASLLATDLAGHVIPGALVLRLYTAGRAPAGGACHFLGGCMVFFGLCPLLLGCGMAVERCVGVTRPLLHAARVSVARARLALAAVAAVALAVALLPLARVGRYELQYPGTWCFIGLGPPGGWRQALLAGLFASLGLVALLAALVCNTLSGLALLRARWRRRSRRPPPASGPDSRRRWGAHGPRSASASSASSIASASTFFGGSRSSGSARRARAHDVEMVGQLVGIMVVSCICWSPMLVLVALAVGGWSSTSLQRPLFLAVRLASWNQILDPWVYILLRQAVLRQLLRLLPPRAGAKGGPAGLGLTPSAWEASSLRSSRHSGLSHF

[2] = molecular target: T1, Prostaglandin E2 receptor EP1 subtype; test: Antagonist activity of human PGE2 receptor expressed in CHOK1 cells assessed as inhibition of intracellular calcium mobilisation by FLIPR assay; type: functional, cell-based, CHO-K1
[3] = Half life in rat at 1 mg/kg, iv; type: ADME, organism-based; design: dose 1 mg/kg, route intravenous; details: in vivo
[4] = tested on: Liver microsomes; test: Metabolic stability assessed as intrinsic clearance in rat liver microsomes; type: ADME, Microsome
[5] = Blood clearance in rat at 1 mg/kg, iv; type: ADME, organism-based; design: dose 1 mg/kg, route intravenous
[6] = Solubility in fed state simulated intestinal fluid after 0.5 hrs; type: physicochemical
[7] = Solubility in fasted state simulated intestinal fluid after 0.5 hrs; type: physicochemical
[8] = Lipophilicity, log D of the compound; type: physicochemical; details: octanol/water
[9] = Volume of distribution at steady state in rat at 1 mg/kg, iv; type: ADME, organism-based; design: dose 1 mg/kg, route intravenous; details: in vivo, read-out: Vdss
[10] = Solubility in simulated gastric fluid after 0.5 hrs; type: physicochemical
[11] = Solubility in water after 0.5 hrs; type: physicochemical
[12] = Solubility in water after 1 hr; type: physicochemical
[13] = Solubility in fed state simulated intestinal fluid after 1 hr; type: physicochemical
[14] = Solubility in fasted state simulated intestinal fluid after 1 hr; type: physicochemical
[15] = Solubility in simulated gastric fluid after 1 hr; type: physicochemical
[16] = Solubility in fasted state simulated intestinal fluid after 2 hrs; type: physicochemical
[17] = Solubility in simulated gastric fluid after 2 hrs; type: physicochemical
[18] = Solubility in water after 2 hrs; type: physicochemical
[19] = Solubility in fed state simulated intestinal fluid after 2 hrs; type: physicochemical
[20] = Ratio of drug level in brain to blood in rat at 5 mg/kg, po after 3 hrs; type: ADME, organism-based; design: dose 5 mg/kg, route oral
[21] = Permeability across MDCK cells; type: ADME, cell-based, Canis lupus familiaris; details: dog, read-out: permeability
[22] = Drug level in rat blood at 10 mg/kg, po after 1 hr; type: ADME, organism-based; design: dose 10 mg/kg, route oral; details: read-out: Drug uptake
[23] = Ratio of drug level in brain to blood in rat at 10 mg/kg, po after 1 hr; type: ADME, organism-based; design: dose 10 mg/kg, route oral
[24] = Drug level in rat blood at 3 mg/kg, po after 3 hrs; type: ADME, organism-based; design: dose 3 mg/kg, route oral; details: read-out: Drug uptake
[25] = Ratio of drug level in brain to blood in rat at 3 mg/kg, po after 3 hrs; type: ADME, organism-based; design: dose 3 mg/kg, route oral

`Cc1cc(C(=O)Nc2ccc(CN(CCO)CCO)cc2)nn1Cc1cc(Cl)ccc1OCC(C)C` gave an IC50 [1] of 15.8 nM and a Ki [2] of 79.4 nM.
`Cc1cc(C(=O)Nc2ccc(CN3CCCC3)cc2)nn1Cc1cc(Cl)ccc1OCC(C)C` gave an IC50 [1] of 6.31 nM.
For `Cc1cc(NC(=O)c2ccccc2)nn1Cc1cc(Cl)ccc1OCc1ccccc1`, the half-life [3] was 2.5 h, the CL [4] was 7.3 mL/min/g and the clearance [5] was 50 mL/min/kg. It also gave a solubility at 0.5 h [6] of 50 µg/mL (≈ 116 µM), a solubility at 0.5 h [7] of 38 µg/mL (≈ 88 µM) and a logD [8] of over 3.7. For the same compound, the Vd [9] was 4.1 L/kg, the solubility at 0.5 h [10] was 2 µg/mL (≈ 4.63 µM) and the solubility at 0.5 h [11] was 2 µg/mL (≈ 4.63 µM).
For `Cc1cc(NC(=O)c2ccc(CN(C)C)cc2)nn1Cc1cc(Cl)ccc1OCC(C)C`, the IC50 [1] was 100 nM.
In the case of `Cc1cc(C(=O)Nc2ccc(CN3CCCCC3)cc2)nn1Cc1cc(Cl)ccc1OCc1ccccc1.Cl`, the IC50 [1] is reported as 12.6 nM, the solubility at 1 h [12] is reported as 373 µg/mL and the solubility at 1 h [13] is reported as 64 µg/mL.
With `Cc1cc(NC(=O)c2cccc(CN(C)C)c2)nn1Cc1cc(Cl)ccc1OCC(C)C` the IC50 [1] was 631 nM.
With `Cc1cc(C(=O)Nc2ccc(CO)cc2)nn1Cc1cc(Cl)ccc1OCc1ccccc1` the IC50 [1] was 6.31 nM and the Ki [2] was 39.8 nM.
`CCNCc1ccc(NC(=O)c2cc(C)n(Cc3cc(Cl)ccc3OCc3ccccc3)n2)cc1` showed an IC50 [1] of 12.6 nM.
`Cc1cc(NC(=O)c2ccc(C(C)NCC(C)C)cc2)nn1Cc1cc(Cl)ccc1OCC(C)C` (configuration not stated) showed an IC50 [1] of 50.1 nM.
In the case of `Cc1cc(C(=O)Nc2ccc(CN3CCCC3)cc2)nn1Cc1cc(Cl)ccc1OCc1ccccc1`, the IC50 [1] is reported as 12.6 nM.
With `Cc1cc(NC(=O)c2ccc3c(c2)CCNCC3)nn1Cc1cc(Cl)ccc1OCC(C)C` the IC50 [1] was 79.4 nM.
Compound `Cc1cc(NC(=O)c2ccc(CN3CCOCC3)cc2)nn1Cc1cc(Cl)ccc1OCC(C)C` has an IC50 [1] of 50.1 nM.
`Cc1cc(NC(=O)c2ccc3c(c2)CCN(C(C)C)C3)nn1Cc1cc(Cl)ccc1OCC(C)C` gave an IC50 [1] of 100 nM.
Compound `Cc1cc(C(=O)Nc2ccc(CN3CCCCC3)cc2)nn1Cc1cc(Cl)ccc1OCC(C)C.Cl` has a solubility at 1 h [14] of 164 µg/mL, an IC50 [1] of 6.31 nM and a solubility at 1 h [12] of 811 µg/mL. The solubility at 1 h [13] was 315 µg/mL and the solubility at 1 h [15] was 662 µg/mL.
`Cc1cc(C(=O)Nc2ccc(CN(C)C)cc2)nn1Cc1cc(Cl)ccc1OCc1ccccc1` showed an IC50 [1] of 7.94 nM.
Compound `Cc1cc(C(=O)Nc2ccc(CO)cc2)nn1Cc1cc(Cl)ccc1OCC(C)C` has an IC50 [1] of 31.6 nM.
`Cc1cc(NC(=O)c2ccc3c(c2)CCNC3)nn1Cc1cc(Cl)ccc1OCC(C)C` gave an IC50 [1] of 39.8 nM and a Ki [2] of 126 nM.
`Cc1cc(NC(=O)c2cccc(CN3CCCC3)c2)nn1Cc1cc(Cl)ccc1OCC(C)C` showed an IC50 [1] of 126 nM.
Work on `Cc1cc(NC(=O)c2ccc(C3CCCN3)cc2)nn1Cc1cc(Cl)ccc1OCC(C)C` (configuration not stated) yielded an IC50 [1] of 100 nM and a Ki [2] of 100 nM.
Work on `Cc1cc(NC(=O)c2cccc(CN3CCCCC3)c2)nn1Cc1cc(Cl)ccc1OCC(C)C` yielded an IC50 [1] of 501 nM.
`Cc1cc(C(=O)Nc2ccccc2)nn1Cc1cc(Cl)ccc1OCc1ccccc1` gave a CL [4] of 12 mL/min/g and a logD [8] of over 3.7.
Work on `Cc1cc(NC(=O)c2ccccc2CO)nn1Cc1cc(Cl)ccc1OCC(C)C` yielded an IC50 [1] of 25.1 nM.
`Cc1cc(NC(=O)c2cccc(CN3CCOCC3)c2)nn1Cc1cc(Cl)ccc1OCC(C)C` gave an IC50 [1] of 251 nM.
Compound `Cc1cc(NC(=O)c2ccc(CN3CCCCC3)cc2)nn1Cc1cc(Cl)ccc1OCC(C)C.Cl` has a solubility at 2 h [16] of 90 µg/mL, a solubility at 2 h [17] of 30 µg/mL and an IC50 [1] of 39.8 nM. It also gave a solubility at 2 h [18] of over 1000 µg/mL and a solubility at 2 h [19] of 240 µg/mL.
With `CNCc1ccc(NC(=O)c2cc(C)n(Cc3cc(Cl)ccc3OCc3ccccc3)n2)cc1.Cl` the solubility at 1 h [14] was 57 µg/mL, the half-life [3] was 3 h and the IC50 [1] was 12.6 nM. The Kp at 3 h [20] was 1.4, the solubility at 1 h [12] was 253 µg/mL and the Ki [2] was 126 nM. It also gave a solubility at 1 h [13] of 185 µg/mL, a CL [4] of 1.8 mL/min/g and a clearance [5] of 46 mL/min/kg. The Papp [21] was 31.8 ×10⁻⁶ cm/s and the Vd [9] was 9.7 L/kg.
`Cc1cc(NC(=O)c2ccc(C(C)N3CCCC3)cc2)nn1Cc1cc(Cl)ccc1OCC(C)C` (configuration not stated) gave an IC50 [1] of 50.1 nM.
`CCNCc1ccc(C(=O)Nc2cc(C)n(Cc3cc(Cl)ccc3OCC(C)C)n2)cc1.Cl` gave a concentration at 1 h [22] of 107 nM, a solubility at 2 h [16] of 14 µg/mL and a solubility at 2 h [17] of 62 µg/mL. For the same compound, the half-life [3] was 2.8 h, the Kp at 1 h [23] was 0.8 and the IC50 [1] was 100 nM. The Ki [2] was 158 nM, the CL [4] was 1.8 mL/min/g and the clearance [5] was 29 mL/min/kg. The concentration at 3 h [24] was 114 nM, the Kp at 3 h [25] was 0.9 and the solubility at 2 h [18] was 690 µg/mL. The Papp [21] was 52.1 ×10⁻⁶ cm/s, the Vd [9] was 6.3 L/kg and the solubility at 2 h [19] was 154 µg/mL.
For `Cc1cc(C(=O)Nc2ccc(CN3CCOCC3)cc2)nn1Cc1cc(Cl)ccc1OCc1ccccc1`, the IC50 [1] was 10 nM and the Ki [2] was 79.4 nM.
Compound `CNCc1ccc(NC(=O)c2cc(C)n(Cc3cc(Cl)ccc3OCC(C)C)n2)cc1.Cl` has a solubility at 1 h [14] of 483 µg/mL, an IC50 [1] of 7.94 nM and a solubility at 1 h [12] of 474 µg/mL. The Ki [2] was 79.4 nM, the solubility at 1 h [13] was 589 µg/mL and the solubility at 1 h [15] was 364 µg/mL.
Compound `CCNCc1cccc(C(=O)Nc2cc(C)n(Cc3cc(Cl)ccc3OCC(C)C)n2)c1` has an IC50 [1] of 501 nM.
In the case of `Cc1cc(C(=O)O)nn1Cc1cc(Cl)ccc1OCc1ccccc1`, the logD [8] is reported as 1.
With `Cc1cc(NC(=O)c2ccc(CN3CCCC3)cc2)nn1Cc1cc(Cl)ccc1OCC(C)C.Cl` the half-life [3] was 1.4 h, the Kp at 1 h [23] was 1.2 and the IC50 [1] was 50.1 nM. For the same compound, the Ki [2] was 158 nM, the CL [4] was 3.2 mL/min/g and the clearance [5] was 46 mL/min/kg. It also gave a Kp at 3 h [25] of 2, a solubility at 2 h [18] of over 1000 µg/mL and a Papp [21] of 36 ×10⁻⁶ cm/s. It also gave a Vd [9] of 4.6 L/kg and a solubility at 2 h [19] of 520 µg/mL.
`Cc1cc(C(=O)Nc2ccc(CNCCO)cc2)nn1Cc1cc(Cl)ccc1OCC(C)C` gave an IC50 [1] of 25.1 nM and a Ki [2] of 100 nM.
`Cc1cc(C(=O)Nc2ccc(CN3CCOCC3)cc2)nn1Cc1cc(Cl)ccc1OCC(C)C` gave an IC50 [1] of 7.94 nM.
In the case of `Cc1cc(C(=O)Nc2ccc(CN(C)C)cc2)nn1Cc1cc(Cl)ccc1OCC(C)C`, the IC50 [1] is reported as 5.01 nM.
`CCN1CCc2ccc(C(=O)Nc3cc(C)n(Cc4cc(Cl)ccc4OCC(C)C)n3)cc2CC1` gave an IC50 [1] of 50.1 nM and a Ki [2] of 50.1 nM.
Compound `Cc1cc(NC(=O)c2ccc(CO)cc2)nn1Cc1cc(Cl)ccc1OCC(C)C` has an IC50 [1] of 12.6 nM.
In the case of `CCNCc1ccc(NC(=O)c2cc(C)n(Cc3cc(Cl)ccc3OCC(C)C)n2)cc1.Cl`, the solubility at 1 h [14] is reported as 812 µg/mL, the IC50 [1] is reported as 7.94 nM and the solubility at 1 h [12] is reported as over 1000 µg/mL. For the same compound, the solubility at 1 h [13] was over 1000 µg/mL and the solubility at 1 h [15] was 905 µg/mL.

Source: ChEMBL document CHEMBL1155060, “Discovery of brain penetrant, soluble, pyrazole amide EP1 receptor antagonists” (Bioorg Med Chem Lett, 2008)
